Laboratory results: publication PMC11045757, “Group 3 medulloblastoma transcriptional networks collapse under domain specific EP300/CBP inhibition” (Nature Communications, 2024)

Key:
CBP bromodomain [1] = target: T1, CBP bromodomain (Homo sapiens, UniProt Q92793); assay: Differential scanning fluorimetry (DSF) thermal shift; type: binding; details: DSF; 5 μM protein, 100 μM compound; three independent experiments, average ± SD
T1 construct: CBP (residues 1081-1197); 6xHis (cleaved yes); host or cells: E. coli BL21 (DE3) RIL

CBP bromodomain [2] = assay: as above; type: binding; details: ΔTm (CBP)/ΔTm(BRD4)
BRD4-BD1 (BRD4-1) [3] = target: T2, BRD4-BD1 (BRD4-1) (Homo sapiens, UniProt O60885); assay: Isothermal titration calorimetry (ITC); type: binding
T2 construct: BRD4-BD1 (residues 44-168); 6xHis (cleaved yes); host or cells: E. coli BL21 (DE3) RIL
Procedure: (§1) At OD600 of 0.6, the culture was cooled down to 18 °C and induced with 0.1 mM IPTG. After 18 h growth, the culture was harvested by centrifugation at 6000 × g for 25 min and stored at -80 °C. Harvested cell pellets were re-suspended in 50 mM Na/K phosphate buffer (pH 7.4) containing 100 mM NaCl, 40 mM imidazole, 0.01% w/v lysozyme and 0.01% v/v Triton X-100 at 4 °C for 1 h, subjected to sonication and the lysate was clarified by centrifugation (30,000 × g for 45 min at 4 °C). Proteins were purified by FPLC at 4 °C using columns and chromatography materials from GE Healthcare. […] Proteins were purified to homogeneity by size exclusion chromatography using Superdex 75 equilibrated with elution buffer (50 mM HEPES pH 7.5, 100 mM NaCl, 2 mM DTT). All BRDs eluted as monomeric protein and were of crystallization grade quality (>95% purity as judged by SDS-PAGE). Pool fractions were combined, concentrated to 10–12 mg/ml, and aliquots were flash-frozen in liquid N2 and stored at −80 °C.
All experiments were conducted using an PEAQ-ITC calorimeter (Malvern Scientific). BRDs were buffer exchanged using PD10 columns (GE life sciences) into 50 mM HEPES pH7.5 and 100 mM NaCl (ITC buffer) before the experiment and concentrated to ∼10 mg/mL. Experiments were carried out in ITC buffer while stirring at 750 rpm through reverse titration. The microsyringe (40 μL load volume) was loaded with the protein sample (250–600 μM protein in ITC buffer) and inserted into the calorimetric cell (0.2 mL cell volume) consisting of compound (20–60 μM in ITC buffer). All titrations were conducted using an initial control injection of 0.2 μL followed by 13 identical injections (~3 μL per injection) with a duration of 2 s (per injection) and a spacing of 150 s between injections. The ratio of protein/compound was optimized to ensure complete saturation of the titrant before the final injection to ensure proper baseline determination. Data were corrected for dilution and analyzed using the MicroCal Origin software to determine the enthalpies of binding (ΔH) and binding constants as described. Thermodynamic parameters were calculated using the basic equation of thermodynamics (ΔG = ΔH − TΔS = −RTlnKB) where ΔG, ΔH and ΔS are the changes in free energy, enthalpy and entropy of binding, respectively. A single binding site model was used for all ligand-protein interactions.

CBP bromodomain [4] = target: T1, CBP bromodomain; assay: Isothermal titration calorimetry (ITC); type: binding; details: single ITC experiment, data fit ± SEM
Procedure: as §1, with “After” for “At OD600 of 0.6, the culture was cooled down to 18 °C and induced with 0.1 mM IPTG. After”, “All BRDs eluted as monomeric protein and were of crystallization grade quality (>95% purity as judged by SDS-PAGE).” left out

EP300 bromodomain [5] = target: T3, EP300 bromodomain (Homo sapiens, UniProt Q09472); assay: Isothermal titration calorimetry (ITC); type: binding; details: single ITC experiment, data fit ± SEM
T3 construct: 6xHis (cleaved yes); host or cells: E. coli BL21 (DE3) RIL
T3 sequence (Q09472 1048-1161): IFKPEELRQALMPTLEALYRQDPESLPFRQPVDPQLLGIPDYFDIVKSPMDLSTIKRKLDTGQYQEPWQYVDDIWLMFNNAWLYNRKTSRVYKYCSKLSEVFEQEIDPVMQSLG
Procedure: as §1, with “After” for “At OD600 of 0.6, the culture was cooled down to 18 °C and induced with 0.1 mM IPTG. After”, “All BRDs eluted as monomeric protein and were of crystallization grade quality (>95% purity as judged by SDS-PAGE).” left out

BRD4-BD1 (BRD4-1) [6] = target: T2, BRD4-BD1 (BRD4-1); assay: Differential scanning fluorimetry (DSF) thermal shift; type: binding; details: DSF; 5 μM protein, 100 μM compound; three independent experiments, average ± SD
Outline: (§2)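 Thermal shift of 5 μM E. coli-expressed bromodomain with 100 μM compound in 50 mM HEPES pH 7.5, 150 mM NaCl, 2 mM DTT, 2% DMSO, 5X SYPRO Orange, quadruplicate. Heated 25→95 °C at 1 °C/min, fluorescence at 610 nm; ΔTm relative to DMSO reference wells.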

EP300 bromodomain [7] = target: T3, EP300 bromodomain; assay: as above; type: binding; details: DSF; 5 μM protein, 100 μM compound; three independent experiments, average ± SD
Outline: as §2

[8] = test system: HDMB03 (HDMBO3) group 3 medulloblastoma cells; assay: CellTiter-Glo dose-response growth assay; type: cell-based; details: Homo sapiens, HD-MB03; HDMBO3 G3MB cell growth; read-out: IC50 (nM) HDMBO3
Outline: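 Growth of the G3MB line HDMB03 was assessed across compound concentrations. Cells went into 384-well plates at 500 cells per well in growth medium and were exposed to compound for the indicated time. A CellTiter-Glo luminescence assay, run per manufacturer instructions and read on an Envision 2104 instrument, quantified remaining cell growth.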

T1 sequence (Q92793 1081-1197): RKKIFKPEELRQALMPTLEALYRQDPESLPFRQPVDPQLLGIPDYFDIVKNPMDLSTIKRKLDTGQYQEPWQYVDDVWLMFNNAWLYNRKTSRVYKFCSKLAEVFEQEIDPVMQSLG

## Cc1noc(C)c1-c1ccc2c(c1)nc(C1CCCC(=O)N1)n2C1CCC(NC(=O)OC(C)(C)C)CC1 (stereo not drawn) [Compound 1]
CBP bromodomain [1]
  ∆Tm (°C) CBP: 7.8 ± 0.43 °C
CBP bromodomain [2]
  Ratio CBP/BRD4 of ∆Tm: 3.7
BRD4-BD1 (BRD4-1) [3]; relative to CCS1477
  reduction of activity against BRD4: ~ 10 fold
BRD4-BD1 (BRD4-1) [3]; single ITC experiment, data fit ± SEM
  Kd: 4210 ± 400 nM
CBP bromodomain [4]
  Kd: 1550 ± 600 nM
EP300 bromodomain [5]
  Kd: 2300 ± 386 nM
BRD4-BD1 (BRD4-1) [6]
  ∆Tm (°C) BRD4-1: 2.1 ± 0.06 °C
EP300 bromodomain [7]
  ∆Tm (°C) EP300: 7.3 ± 1.3 °C
[8]
  IC50: > 100000 nM
